Measurements from ChEMBL document CHEMBL1914286, “Design, structure-activity relationship, and highly efficient asymmetric synthesis of 3-phenyl-4-benzylaminopiperidine derivatives as novel neurokinin-1 receptor antagonists” (Bioorg Med Chem, 2011).

Tests used:
[1] = target: Substance-P receptor (Homo sapiens, UniProt P25103); experiment: biochemical
Description: Displacement of [125I]BH-SP from NK1 receptor in human IM9 cells after 30 mins by scintillation counting

[2] = species: Cavia porcellus; experiment: animal or person; settings: Hartley, po, 0.75 h, read-out: INH
[3] = system: Cavia porcellus; experiment: Antagonist activity at NK1 receptor in po dosed Hartley guinea pig assessed as inhibition of GR73632-induced hypermotility measured after 0.75 hrs; type: functional; settings: for ED50: Cavia porcellus, Hartley, po, 0.75 h, read-out: ID50 (the source's name)
[4] = physchem; settings: buffer, pH 7.4
Description: Lipophilicity, log D of the compound at pH 7.4

[5] = in vitro; settings: human, liver microsomes, Stability
Description: (§1) Metabolic stability in human liver microsomes at 1 uM

[6] = system: Liver microsomes; settings: human, 1 µM
Description: as §1

Substance-P receptor, sequence (P25103 whole entry): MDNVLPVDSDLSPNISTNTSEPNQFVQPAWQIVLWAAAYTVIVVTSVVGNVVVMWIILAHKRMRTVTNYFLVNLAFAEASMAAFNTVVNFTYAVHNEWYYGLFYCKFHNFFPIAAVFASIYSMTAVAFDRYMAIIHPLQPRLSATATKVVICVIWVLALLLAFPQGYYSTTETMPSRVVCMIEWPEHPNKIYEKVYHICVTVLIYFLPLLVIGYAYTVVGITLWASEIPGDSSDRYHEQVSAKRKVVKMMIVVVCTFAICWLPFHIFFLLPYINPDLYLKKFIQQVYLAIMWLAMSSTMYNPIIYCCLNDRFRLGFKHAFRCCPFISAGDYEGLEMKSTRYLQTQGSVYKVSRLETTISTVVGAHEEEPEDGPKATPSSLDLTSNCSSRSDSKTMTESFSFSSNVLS

Row | IC50 [1] [nM] | logD [4] | microsomal CLint at 1 µM [5] [µL/min/mg] | Stability [6] [µL/min/mg] | SMILES | inhibition in vivo at 1 mg/kg [2] [%] | ED50 [3] [mg/kg] | ID50 [3] [mg/kg]
1 | 1.4 | – | – | – | COc1ccc(-n2nnnc2C(F)(F)F)cc1CN[C@H]1CCNC[C@H]1c1ccccc1 (racemic) | – | – | –
2 | 0.054 | 2.35 | 95 | – | COc1ccc(-n2nnnc2C(F)(F)F)cc1CN[C@H]1CCN(C(=O)CCNC(C)=O)C[C@H]1c1ccccc1.Cl (racemic) | 79 | 0.34 | –
3 | 0.13 | 3.18 | 213 | – | COc1ccc(-n2nnnc2C(F)(F)F)cc1CN[C@H]1CCN(C(=O)N(C)C)C[C@H]1c1ccccc1 (racemic) | 90 | – | –
4 | 0.075 | – | 144 | – | COc1ccc(-n2nnnc2C(F)(F)F)cc1CN[C@H]1CCN(S(C)(=O)=O)C[C@H]1c1ccccc1 (racemic) | 18 | – | –
5 | 0.057 | 2.31 | 27 | – | COc1ccc(-n2nnnc2C(F)(F)F)cc1CN[C@H]1CCN(C(=O)C2CN(C(C)=O)C2)C[C@H]1c1ccccc1 (racemic) | 32 | – | –
6 | 8.4 | – | – | – | COc1ccc(OC(F)(F)F)cc1CN[C@H]1CCNC[C@H]1c1ccccc1 (racemic) | – | – | –
7 | – | – | – | 8 | COc1ccc(-n2nnnc2C(F)(F)F)cc1CN[C@H]1CCN(C(=O)CNC(C)=O)C[C@H]1c1ccccc1 | – | – | 0.066
8 | 0.057 | 3.03 | 155 | – | COc1ccc(-n2nnnc2C(F)(F)F)cc1CN[C@H]1CCN(C(=O)NCC(F)(F)F)C[C@H]1c1ccccc1 (racemic) | 65 | – | –
9 | 0.054 | – | 199 | – | COC(=O)N1CC[C@H](NCc2cc(-n3nnnc3C(F)(F)F)ccc2OC)[C@H](c2ccccc2)C1 (racemic) | 65 | – | –
10 | 0.084 | 2.31 | 73 | – | COc1ccc(-n2nnnc2C(F)(F)F)cc1CN[C@H]1CCN(C(=O)CN(C)C(C)=O)C[C@H]1c1ccccc1 (racemic) | 74 | – | –
11 | 0.1 | 2.51 | 76 | – | COc1ccc(-n2nnnc2C(F)(F)F)cc1CN[C@H]1CCN(C(=O)C2CCN(C(C)=O)CC2)C[C@H]1c1ccccc1.Cl (racemic) | 85 | 0.33 | –
12 | 0.093 | – | 160 | – | CCNC(=O)N1CC[C@H](NCc2cc(-n3nnnc3C(F)(F)F)cc3c2OCC3)[C@H](c2ccccc2)C1 (racemic) | 57 | – | –
13 | 0.044 | – | 217 | – | CCNC(=O)N1CC[C@H](NCc2cc(-n3nnnc3C(F)(F)F)ccc2OC2CC2)[C@H](c2ccccc2)C1 (racemic) | 94 | – | –
14 | 0.039 | 2.79 | 159 | – | CCNC(=O)N1CC[C@H](NCc2cc(-n3nnnc3C(F)(F)F)ccc2OC)[C@H](c2ccccc2)C1.Cl (racemic) | 70 | 0.37 | –
15 | 1.9 | – | – | – | CCN1CC[C@H](NCc2cc(-n3nnnc3C(F)(F)F)ccc2OC)[C@H](c2ccccc2)C1 (racemic) | – | – | –
16 | 3.7 | – | – | – | CCNC(=O)N1CC[C@@H](NCc2cc(OC(F)(F)F)ccc2OC)[C@H](c2ccccc2)C1 (racemic) | – | – | –
17 | 0.081 | 3.09 | 167 | – | COc1ccc(-n2nnnc2C(F)(F)F)cc1CN[C@H]1CCN(C(=O)NC(C)C)C[C@H]1c1ccccc1 (racemic) | 66 | – | –
18 | 4.8 | – | – | – | CCN1CC[C@H](NCc2cc(OC(F)(F)F)ccc2OC)[C@H](c2ccccc2)C1 (racemic) | – | – | –
19 | 0.049 | 2.69 | 111 | – | COc1ccc(-n2nnnc2C(F)(F)F)cc1CN[C@H]1CCN(C(C)=O)C[C@H]1c1ccccc1.Cl (racemic) | 82 | 0.2 | –
20 | > 100 | – | – | – | COc1ccc(-n2nnnc2C(F)(F)F)cc1CN[C@@H]1CCN(C(=O)CNC(C)=O)C[C@@H]1c1ccccc1 | – | – | –
21 | 0.16 | – | – | – | COc1ccc(OC(F)(F)F)cc1CN[C@H]1CCN(C(C)=O)C[C@H]1c1ccccc1 (racemic) | – | – | –
22 | 0.31 | – | – | – | COC(=O)N1CC[C@H](NCc2cc(OC(F)(F)F)ccc2OC)[C@H](c2ccccc2)C1 (racemic) | – | – | –
23 | 0.2 | – | 34 | – | COc1ccc(-n2nnnc2C(F)(F)F)cc1CN[C@@H]1CCN(C(=O)CNC(C)=O)C[C@H]1c1ccccc1 (racemic) | – | – | –
24 | 0.086 | – | 218 | – | CCNC(=O)N1CC[C@H](NCc2cc(-n3nnnc3C(F)(F)F)ccc2OCC)[C@H](c2ccccc2)C1 (racemic) | 35 | – | –
25 | 1.2 | – | – | – | COc1ccc(OC(F)(F)F)cc1CN[C@H]1CCN(S(C)(=O)=O)C[C@H]1c1ccccc1 (racemic) | – | – | –
26 | 0.025 | 2.43 | 146 | – | COc1ccc(-n2nnnc2C(F)(F)F)cc1CN[C@H]1CCN(C(=O)CCCNC(C)=O)C[C@H]1c1ccccc1 (racemic) | – | – | –
27 | 0.17 | – | – | – | CCNC(=O)N1CC[C@H](NCc2cc(OC(F)(F)F)ccc2OC)[C@H](c2ccccc2)C1 (racemic) | – | – | –
28 | 0.073 | 2.28 | – | 32 | COc1ccc(-n2nnnc2C(F)(F)F)cc1CN[C@H]1CCN(C(=O)CNC(C)=O)C[C@H]1c1ccccc1 (racemic) | 99 | – | 0.26
